From ChEMBL document CHEMBL3352691, “Meroterpenoids from the alga-derived fungi Penicillium thomii Maire and Penicillium lividum Westling” (J Nat Prod, 2014)
Where a name gives a salt, the structure may show the parent alone. The source made the active and inactive calls. No cut-off for these calls is given here.

Columns and labels:
[1] = Cytotoxicity against mouse JB6 Cl41 cells assessed as reduction in cell viability up to 100 uM after 2 hrs by MTS assay; format: cell-based; conditions: jb6 cl41, 2 h
[2] = Inhibition of AP-1 basal transcriptional activity in mouse JB6 Cl41 cells at 6.25 uM after 12 hrs by luciferase reporter gene assay; format: functional; conditions: JB6 Cl41, 12 h
[3] = Cytotoxicity against mouse JB6 Cl41 cells after 2 hrs by MTS assay; format: cell-based; conditions: JB6 Cl41, 2 h
JB6 Cl41 = assay: Inhibition of AP-1 basal transcriptional activity in mouse JB6 Cl41 cells at non cytotoxic concentration after 12 hrs by luciferase reporter gene assay; format: functional, cell-based
[4] = Inhibition of endo-1,3-beta-D-glucanase in Pseudocardium sachalinensis preincubated for 15 mins by Nelson method
MDA-MB-231 = assay: Cytotoxicity against human MDA-MB-231 cells after 2 hrs by MTS assay; format: functional, cell-based; conditions: MDA-MB-231, 2 h

Structure (SMILES) | IC50 [4] [µM] | Activity [1] | inhibition at 6.25 µM [2] [%] | IC50 [3] [µM] | inhibition (JB6 Cl41) | IC50 (MDA-MB-231) [µM]
C=C(C)[C@@H]1CC[C@]2(C)Oc3c(C)c4c(c(OC)c3C[C@@H]2[C@]1(C)CCC(=O)O)C(=O)OC4 | 1000 | – | – | < 10 | – | < 10
CC(CC[C@@H](C)[C@H]1CC[C@H]2[C@@H]3C[C@H](OS(=O)(=O)O)[C@H]4C[C@H](OS(=O)(=O)O)[C@@H](OS(=O)(=O)O)C[C@]4(C)[C@H]3CC[C@]12C)C(C)(C)C (some centres not stated) [HALISTANOL SULFATE] | 130 | – | – | – | – | –
COc1c2c(c(C)c3c1C(=O)OC3)O[C@@]1(C)C[C@@H](O)[C@H]3C(C)(C)OC(=O)CC[C@]3(C)[C@H]1C2 | 2 | Non-toxic | 27.6 | < 10 | Active | < 10
COc1c2c(c(C)c3c1C(=O)OC3)O[C@@]1(C)C[C@@H](O)[C@]34O[C@](O)(CC[C@]3(C)[C@H]1C2)OC4(C)C | 250 | – | – | – | – | –

Now those with a lower IC50 [4], led by results:

IC50 [4] [µM] | Structure (SMILES) | Activity [1] | inhibition at 6.25 µM [2] [%] | IC50 [3] [µM] | inhibition (JB6 Cl41) | IC50 (MDA-MB-231) [µM]
1 | COc1c2c(c(C)c3c1C(=O)OC3)O[C@@]1(C)C[C@@H](O)[C@@H](C(C)(C)O)[C@@](C)(CCC(=O)O)[C@H]1C2 | – | – | < 10 | Active | < 10
0.2 | CCCCOC(=O)CC[C@@]1(C)[C@H]2Cc3c(c(C)c4c(c3OC)C(=O)OC4)O[C@@]2(C)C[C@@H](O)[C@H]1C(C)(C)O | Non-toxic | 36.1 | < 10 | Active | < 10
0.12 | C=C(C)[C@@H]1[C@H](O)C[C@]2(C)Oc3c(C)c4c(c(OC)c3C[C@@H]2[C@]1(C)CCC(=O)O)C(=O)OC4 | – | – | – | – | –
0.1 | CCCCOC(=O)CC[C@@]1(C)[C@H]2Cc3c(c(C)c4c(c3OC)C(=O)OC4)O[C@@]2(C)CC[C@H]1C(C)(C)O | Non-toxic | 34 | – | – | –
0.01 | COc1c2c(c(C)c3c1C(=O)OC3)O[C@@]1(C)CC[C@H]3C(C)(C)OC(=O)CC[C@]3(C)[C@H]1C2 | Non-toxic | 36.3 | < 10 | Active | < 10
0.01 | COc1c2c(c(C)c3c1C(=O)OC3)O[C@@]1(C)CC[C@@H](C(C)(C)O)[C@@](C)(CCC(=O)O)[C@H]1C2 | – | – | – | – | –
